Test results reported in PMC8778022, “Synthesis and Biological Activity of 3-(Heteroaryl)quinolin-2(1H)-ones Bis-Heterocycles as Potential Inhibitors of the Protein Folding Machinery Hsp90” (Molecules, 2022).
“Also recorded” adds a separate entry of the source.

Tests used:
Assay type in all cases: cell-based, human
MDA-MB-231 cells = assay: MTS cell viability assay, MDA-MB-231 cells, 72 h; conditions: % of viable cells compared to untreated cells 100%; for viability at 10 µM / viability at 25 µM / viability at 15 µM: Homo sapiens, MDA-MB-231, 72 h
Protocol: (§1) Upon completion of their syntheses, the in vitro activity of quinolone derivatives 3a–f, 4a–h, and 5a,b was evaluated by their growth-inhibitory potency in three cancer cell lines. At first, the viability of the synthesized compounds was examined with the MDA-MB-231 […] breast cancer cell line at concentrations of 10 µM, 15 µM, and 25 µM. Prostate cancer PC-3 cells and human fetal lung fibroblast MRC-5 cell lines were also subjected to this series of compounds at a unique concentration of 15 µM.
(§2) MDA-MB-231 cells were grown in L15 supplemented with 15% serum, 2 mM glutamine, and 22 mM sodium bicarbonate in the presence of Penicillin/Streptomycin antibiotic mixture. PC-3 cells were cultured in RPMI 1640 supplemented with 10% serum and 2 mM glutamine in the presence of Penicillin/Streptomycin antibiotic mixture. MRC-5 cells were cultured in EMEM supplemented with 10% serum and 2 mM glutamine in the presence of Penicillin/Streptomycin antibiotic mixture (Reagents were purchased from Sigma Aldrich, Saint-Quentin-Fallavier, France).
(§3) Cells were treated for 72 h with 10, 15, and 25 µM of the selected substances. Control cells were treated with the equivalent in DMSO.
(§4) Cell survival was assessed using the CellTiter Aqueous One Proliferation assay (Promega, Charbonnières-les-Bains, France) whereby 2500 or 5000 cells per well were seeded in 96-well plates in 100 µL. At the end of the treatment, 20 µL of reagent was added, and absorbance readings were taken at 492 nm on a 96-well plate reader after 3 h of contact (on average).

PC-3 cells = assay: MTS cell viability / growth inhibition assay, PC-3 cells, 72 h; conditions: for GI50: PC-3, concentration needed to reduce cell growth by 50%, 72 h treatment, estimated, read-out: GI50 anti-proliferative effect PC-3; for viability at 15 µM: PC-3, 72 h; for viability at 15 µM / Cell viability [%] PC-3 (15 µM): 72 h, MTS, % of viable cells compared to untreated cells 100%
Protocol: as §1
Then, the growth inhibitory activities against PC-3 prostate cancer cell line were measured for the selected 3-heteroaryl-quinolin-2(1H)-one derivatives 3a–e.
as §2, §3, §4

CDK-4 = assay: Western blot of Hsp90 client protein CDK-4 in PC-3 cells; conditions: for CDK-4 client protein level (Western blot): PC-3 cells, 15 µM, 72 h; for CDK-4 client protein level: as printed in abstract and conclusions
Protocol: (§5) For protein expression analysis, cells were seeded at a rate of 0.75 × 10^6 cells on a 25 cm^2 surface. At the end of the treatment the cells were washed and lysed with RIPA buffer (Sigma Aldrich, Saint-Quentin-Fallavier, France city, country) to which protease inhibitors (Sigma Aldrich, Saint-Quentin-Fallavier, France SIGMA) were added. After 30 min of lysis on ice, the samples were centrifuged (3500 rpm, 10 min) and stored at −20 °C. Total protein concentration was obtained using the Bio-rad Protein Assay reagent (Bio-Rad Laboratories, Marnes-la-Coquette, France city, country). […] Immunorevelation was performed as follows: 1 h saturation of the membrane with TBS-Tween (0.1%)–5% skim milk followed by overnight incubation in primary antibody solution (antibodies were from Santa Cruz Biotechnologies, Clinisciences, Nanterre, France or from Sigma Aldrich, Saint-Quentin-Fallavier, France)(See Table 3). After 1 h of washing in 0.1% TBS-Tween, the membranes were contacted with the second horseradish peroxidase-coupled antibody. Detection of the chemiluminescence signal (SuperSignal Pierce reagent, Fisher Scientific, Illkirch, France) was performed using the ChemiBis gel Imager (DNR Bio-Imaging Systems, Israel).
(§6) Figure 2 Effects of quinolone analogues 3a–e, 4e and 5b on HSP90 machinery protein levels and on CDK-4 stability. PC-3 cells were grown and exposed to Hsp90 inhibitors (3a–e, 4e and 5b, 15 µM) as described in Experimental section for 72 h and cell lysates were analyzed by Western blotting with regard to the levels of CDK-4, Hsp90α/β and Hsp70. NT corresponds to untreated cells; D, DMSO-treated cells were used as controls, GADPH level is used for control in protein loading on gels.

Hsp70 = assay: Western blot of Hsp70 level in PC-3 cells; conditions: 15 µM, 72 h, without triggering the HSR
Protocol: as §5, §6

Hsp90α/β = assay: Western blot of Hsp90 level in PC-3 cells; conditions: 15 µM, 72 h, without triggering the HSR
Protocol: as §5, §6

[1] = MTS cell viability assay, MRC-5 cells, 72 h; conditions: human, MRC-5 fetal lung fibroblast cells, % of viable cells compared to untreated cells 100%
Protocol: as §1, §2, §3, §4

SMILES | viability at 10 µM (MDA-MB-231 cells; 10 µM) [%] | viability at 25 µM (MDA-MB-231 cells; 25 µM) [%] | viability at 15 µM (PC-3 cells; Homo sapiens) [%] | viability at 72 h, 15 µM [1] [%] | viability at 15 µM (MDA-MB-231 cells) [%] | also measured
O=c1c(-c2nc3ccccc3n2Cc2ccccc2)cc2ccccc2n1Cc1ccccc1 [3a] | < 47 | ~30 |  |  |  | GI50 (PC-3 cells; Homo sapiens): 48 µM
COc1ccc(Cn2c(-c3cc4ccccc4n(C)c3=O)nc3cc(C)c(C)cc32)cc1 [3b] |  | ~30 | ≥ 56 |  |  | CDK-4 client protein level (Western blot) (CDK-4): more decreased; CDK-4 client protein level (CDK-4): significant decrease; Hsp70 level (heat shock response) (Hsp70): stabilize; GI50 (PC-3 cells; Homo sapiens): 28 µM; IC50 (PC-3 cells; Homo sapiens, as printed in abstract and b26, refers to Table 2 (PC-3, 72 h), read-out: IC50 anti-proliferative activity): 28 µM; Hsp90 level (heat shock response) (Hsp90α/β): stabilize
Cn1c(=O)c(-c2nc3ccccc3s2)cc2ccccc21 [3c] |  |  |  |  |  | GI50 (PC-3 cells; Homo sapiens): 37 µM
CSc1ncnc2c1nc(-c1cc3ccccc3n(C)c1=O)n2Cc1ccccc1 [3e, 3-(6-Methylthiopurine)-2-quinolone] |  |  | ≥ 56 |  |  | GI50 (PC-3 cells; Homo sapiens): 38 µM
COc1cc(-c2ncnc3c2nc(-c2cc4ccccc4n(C)c2=O)n3Cc2ccccc2)cc(OC)c1OC [4d, 3-[9-benzyl-6-(3,4,5-trimethoxyphenyl)-9H-purin-8-yl]-1-methylquinolin-2(1H)-one] |  |  |  | 71 to 79 |  | 
Cc1cc(C)cc(-c2ncnc3c2nc(-c2cc4ccccc4n(C)c2=O)n3Cc2ccccc2)c1 [4e, 3-[9-benzyl-6-(3,5-dimethylphenyl)-9H-purin-8-yl]-1-methylquinolin-2(1H)-one] |  |  | ≥ 56 | 71 to 79 |  | CDK-4 client protein level (Western blot) (CDK-4): degraded; also recorded: more decreased; CDK-4 client protein level (CDK-4): significant decrease; Hsp70 level (heat shock response) (Hsp70): stabilize; Hsp90 level (heat shock response) (Hsp90α/β): stabilize
Cn1c(=O)c(-c2nc3c(-c4ccc(F)cc4)ncnc3n2Cc2ccccc2)cc2ccccc21 [4h, 3-[9-benzyl-6-(4-fluorophenyl)-9H-purin-8-yl]-1-methylquinolin-2(1H)-one] |  | ~30 |  |  |  | 
COc1ccc(Nc2ncnc3c2nc(-c2cc4ccccc4n(C)c2=O)n3Cc2ccccc2)cc1 [5a, 3-{9-benzyl-6-[(4-methoxyphenyl)amino]-9H-purin-8-yl}-1-methylquinolin-2(1H)-one] | < 47 |  |  |  |  | 
COc1cc(Nc2ncnc3c2nc(-c2cc4ccccc4n(C)c2=O)n3Cc2ccccc2)cc(OC)c1OC [5b, 3-{9-benzyl-6-[(3,4,5-trimethoxyphenyl)amino]-9H-purin-8-yl}-1-methylquinolin-2(1H)-one] |  |  |  |  |  | CDK-4 client protein level (Western blot) (CDK-4): degraded; Hsp70 level (heat shock response) (Hsp70): stabilize; Hsp90 level (heat shock response) (Hsp90α/β): stabilize
O=c1c(-c2nc3ccccc3n2Cc2ccccc2)cc2ccccc2n1Cc1ccccc1 [C00001] |  |  | 70 | 80 | 47 | Cell viability [%] MDA-MB-231 (MDA-MB-231 cells; 25 µM): 36%
COc1ccc(Cn2c(-c3cc4ccccc4n(C)c3=O)nc3cc(C)c(C)cc32)cc1 [C00002] | 60 |  |  | 95 | 60 | Cell viability [%] MDA-MB-231 (MDA-MB-231 cells; 25 µM): 23%; Cell viability [%] PC-3 (15 µM) (PC-3 cells): 61%
Cn1c(=O)c(-c2nc3ccccc3s2)cc2ccccc21 [C00003] | 55 | 65 | 61 | 88 | 72 | 
Cn1c(=O)c(-c2nc3ccccc3o2)cc2ccccc21 [C00004] | 98 | 98 |  |  | 98 | 
CSc1ncnc2c1nc(-c1cc3ccccc3n(C)c1=O)n2Cc1ccccc1 [C00005] | 73 | 50 |  | 88 | 70 | Cell viability [%] PC-3 (15 µM) (PC-3 cells): 61%
Cn1c(=O)c(-c2cc3ccccc3s2)cc2ccccc21 [C00006] | 98 |  |  |  |  | 
COc1ccc(-c2ncnc3c2nc(-c2cc4ccccc4n(C)c2=O)n3Cc2ccccc2)cc1 [C00007] | 66 | 87 | 73 | 94 | 81 | 
COc1cccc(-c2ncnc3c2nc(-c2cc4ccccc4n(C)c2=O)n3Cc2ccccc2)c1 [C00008] | 70 | 61 | 106 | 92 | 69 | 
Cn1c(=O)c(-c2nc3c(-c4ccccc4)ncnc3n2Cc2ccccc2)cc2ccccc21 [C00009] | 71 | 35 | 97 | 82 | 62 | 
COc1cc(-c2ncnc3c2nc(-c2cc4ccccc4n(C)c2=O)n3Cc2ccccc2)cc(OC)c1OC [C00010] | 60 | 55 | 89 |  | 47 | 
Cn1c(=O)c(-c2nc3c(-c4cccc5ccccc45)ncnc3n2Cc2ccccc2)cc2ccccc21 [C00012] | 73 | 92 | 88 | 98 | 81 | 
Cn1c(=O)c(-c2nc3c(-c4ccc(F)cc4)ncnc3n2Cc2ccccc2)cc2ccccc21 [C00014] | 55 |  | 97 | 84 | 42 | Cell viability [%] MDA-MB-231 (MDA-MB-231 cells; 25 µM): 17%
COc1ccc(Nc2ncnc3c2nc(-c2cc4ccccc4n(C)c2=O)n3Cc2ccccc2)cc1 [C00015] |  | 69 | 87 | 91 | 63 | Cell viability [%] MDA-MB-231 (MDA-MB-231 cells; 10 µM): 62%
COc1cc(Nc2ncnc3c2nc(-c2cc4ccccc4n(C)c2=O)n3Cc2ccccc2)cc(OC)c1OC [C00016] | 44 | 61 | 88 | 81 | 55 | 
COc1ccc(C(=O)Nc2cc3cc(Br)ccc3n(C)c2=O)cc1 [C00017, reference compound] | 76 |  |  |  |  | 
